Measurements published in patent US20240016781A1, “TREATMENT OF KRAS MUTANT CANCERS” (MEI Pharma, Inc., priority 2020, published 2024).
Read-outs that look alike come from different tables or passages of the source.

Assays:
Huh-7 xenografts = assay: CIVO intratumoral microinjection, Huh-7 xenografts; type: in vivo; details: Huh-7 liver cancer model
Text: FIG. 6 depicts the CIVO injection array.
CC3 is not elevated over background levels at any injection site.

SW48 KRAS (G12C/+) = assay: 72-hour CellTiter-Glo 2.0 growth inhibition screen (single agent, 9x9 combination dose matrix); type: cell-based; details: for EC50: SW48, 72 h, read-out: EC50;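 as to Best CI Level: inhibition effect level at which the best CI was calculated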
HCC1171 = assay: as above; type: cell-based
Panc 04.03 = assay: as above; type: cell-based; details: for EC50 / Response Area: Panc 04.03, Pancreas
Gp2D = assay: as above; type: cell-based; details: for EC50: GP2d
[1] = Homo sapiens, SW48 KRAS (G12C/+), Colorectal, Additional Single Agent Responses (inhibition, % I), 72 h
[2] = Homo sapiens, SW48 KRAS (G12C/+), Colorectal, growth inhibition (GI) curve, single agent, 72 h
[3] = SW48 KRAS (G12C/+), enhancer + MEI-522 (Voruciclib), 72 h
[4] = enhancer combined with MEI-522 (Voruciclib), SW48 KRAS (G12C/+) (Colorectal), 72 hours, inhibition data
[5] = HCC1171 (KRAS G12C), enhancer + MEI-522 (Voruciclib), 72 h;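 as to Best CI Level: inhibition effect level at which the best CI was calculated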
[6] = HCC1171, Lung, Additional Single Agent Responses (inhibition, % I), 72 h
[7] = enhancer combined with MEI-522 (Voruciclib), HCC1171 (Lung), 72 hours, inhibition data
[8] = Panc 04.03 (KRAS G12D), enhancer + MEI-522 (Voruciclib), 72 h;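 as to Best CI Level: inhibition effect level at which the best CI was calculated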
[9] = enhancer combined with MEI-522 (Voruciclib), Panc 04.03 (Pancreas), 72 hours, inhibition data
[10] = Gp2D (KRAS G12D), enhancer + MEI-522 (Voruciclib), 72 h;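 as to Best CI Level: inhibition effect level at which the best CI was calculated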
[11] = Gp2D, Colorectal, Additional Single Agent Responses (inhibition, % I), 72 h
[12] = enhancer combined with MEI-522 (Voruciclib), Gp2D (Colorectal), 72 hours, inhibition data

`CN1CCN(c2ccc(OC(F)(F)F)c(Nc3ncc4c(n3)-c3c(c(C(N)=O)nn3CCO)CC4)c2)CC1` [Onvansertib] was tested, and the “apoptotic cells (CC3)” value (Huh-7 xenografts) was “do not result in an increase in apoptotic cells”, the EC50 (SW48 KRAS (G12C/+); [1]) was 15.5 nM and the EC50 (SW48 KRAS (G12C/+); [2]) was 17.1 nM. For the same compound, the IC50 (SW48 KRAS (G12C/+); [1]) was 16.3 nM, the Emax (SW48 KRAS (G12C/+); Homo sapiens, SW48 KRAS (G12C/+), Colorectal, Additional Single Agent Responses, 72 h, read-out: Max Response (% I)) was 93% and the GI50 (SW48 KRAS (G12C/+); [2]) was 15.9 nM. For the same compound, the Emax (SW48 KRAS (G12C/+); Homo sapiens, SW48 KRAS (G12C/+), Colorectal, growth inhibition (GI), single agent, 72 h, read-out: Max Response (% GI)) was 159%, the “Response Area” value (SW48 KRAS (G12C/+); SW48 KRAS (G12C/+), Colorectal, Additional Single Agent Responses (inhibition, % I), 72 h) was 4.14 and the “Response Area” value (SW48 KRAS (G12C/+); SW48 KRAS (G12C/+), Colorectal, growth inhibition (GI), AUC, single agent, 72 h) was 5.77. The “Best CI” value (SW48 KRAS (G12C/+); [3]) was 0.86, the “Bliss Volume” value (SW48 KRAS (G12C/+); [3]) was 2.74 and the HSA volume (SW48 KRAS (G12C/+); [3]) was −2.16. For the same compound, the “Loewe Volume” value (SW48 KRAS (G12C/+); [3]) was −0.91, the “Synergy Score” value (SW48 KRAS (G12C/+); [3]) was 5.28 and the “Best CI” value (SW48 KRAS (G12C/+); [4]) was 0.67. For the same compound, the “Best CI Level” value (SW48 KRAS (G12C/+); [4]) was 20, the “Bliss Volume” value (SW48 KRAS (G12C/+); [4]) was −0.08 and the HSA volume (SW48 KRAS (G12C/+); [4]) was 0.19. The “Loewe Volume” value (SW48 KRAS (G12C/+); [4]) was −0.06, the “Synergy Score” value (SW48 KRAS (G12C/+); [4]) was 1.03 and the “Best CI” value (HCC1171; [5]) was 1.01. The “Bliss Volume” value (HCC1171; [5]) was −2.83, the HSA volume (HCC1171; [5]) was −2.66 and the “Loewe Volume” value (HCC1171; [5]) was −1.72. For the same compound, the “Synergy Score” value (HCC1171; [5]) was 1.86, the EC50 (HCC1171; [6]) was 15.5 nM and the “Response Area” value (HCC1171; [6]) was 1.75. For the same compound, the Emax (HCC1171; HCC1171, Lung, Additional Single Agent Responses, 72 h, read-out: Max Response (% I)) was 46%, the GI50 (HCC1171; HCC1171, Lung, growth inhibition (GI) curve, single agent, 72 h) was 33 nM and the “Response Area” value (HCC1171; HCC1171, Lung, growth inhibition (GI), AUC, single agent, 72 h) was 3.02. The Emax (HCC1171; HCC1171, Lung, growth inhibition (GI), single agent, 72 h, read-out: Max Response (% GI)) was 81%, the “Best CI” value (HCC1171; [7]) was 0.62 and the “Bliss Volume” value (HCC1171; [7]) was −3.14. For the same compound, the HSA volume (HCC1171; [7]) was −1.61, the “Loewe Volume” value (HCC1171; [7]) was −1.03 and the “Synergy Score” value (HCC1171; [7]) was 0.59. The Best CI Level (HCC1171; enhancer combined with MEI-522 (Voruciclib), HCC1171 (Lung), 72 hours, inhibition data, unit assumed) was 50%, the GI50 (Panc 04.03; Homo sapiens, Panc 04.03, 72 h) was 50.8 nM and the EC50 (Panc 04.03; Homo sapiens, Panc 04.03, 72 h, Additional Single Agent Responses (inhibition, % I), 72 h) was 18.7 nM. The EC50 (Panc 04.03; Homo sapiens, Panc 04.03, 72 h, growth inhibition (GI) curve, single agent, 72 h) was 19.2 nM, the Emax (Panc 04.03; Homo sapiens, Panc 04.03, 72 h, read-out: Max Response (% GI)) was 70% and the Emax (Panc 04.03; Homo sapiens, Panc 04.03, 72 h, read-out: Max Response (% I)) was 54%. For the same compound, the “Best CI” value (Panc 04.03; [8]) was 0.32, the “Bliss Volume” value (Panc 04.03; [8]) was 2.32 and the HSA volume (Panc 04.03; [8]) was 0.85. The “Loewe Volume” value (Panc 04.03; [8]) was 0.87, the “Synergy Score” value (Panc 04.03; [8]) was 1.99 and the “Response Area” value (Panc 04.03; Additional Single Agent Responses (inhibition, % I), 72 h) was 1.94. The “Response Area” value (Panc 04.03; growth inhibition (GI), AUC, single agent, 72 h) was 2.60, the “Best CI” value (Panc 04.03; [9]) was 0.64 and the “Best CI Level” value (Panc 04.03; [9]) was 20. For the same compound, the “Bliss Volume” value (Panc 04.03; [9]) was 0.17, the HSA volume (Panc 04.03; [9]) was 0.61 and the “Loewe Volume” value (Panc 04.03; [9]) was 0.89. For the same compound, the “Synergy Score” value (Panc 04.03; [9]) was 0.98, the EC50 (Gp2D; 72 h, Colorectal, Additional Single Agent Responses (inhibition, % I)) was 23.8 nM and the EC50 (Gp2D; 72 h, Colorectal, growth inhibition (GI) curve, single agent) was 33.9 nM. The “Best CI” value (Gp2D; [10]) was 0.96, the “Bliss Volume” value (Gp2D; [10]) was 7.51 and the HSA volume (Gp2D; [10]) was −1.36. For the same compound, the “Loewe Volume” value (Gp2D; [10]) was −1.41, the “Synergy Score” value (Gp2D; [10]) was 3.16 and the IC50 (Gp2D; [11]) was 25.5 nM. The “Response Area” value (Gp2D; [11]) was 4.29, the Emax (Gp2D; Gp2D, Colorectal, Additional Single Agent Responses, 72 h, read-out: Max Response (% I)) was 93% and the GI50 (Gp2D; Gp2D, Colorectal, growth inhibition (GI) curve, single agent, 72 h) was 22.4 nM. For the same compound, the “Response Area” value (Gp2D; Gp2D, Colorectal, growth inhibition (GI), AUC, single agent, 72 h) was 7.46, the Emax (Gp2D; Gp2D, Colorectal, growth inhibition (GI), single agent, 72 h, read-out: Max Response (% GI)) was 170% and the “Best CI” value (Gp2D; [12]) was 0.77. For the same compound, the “Best CI Level” value (Gp2D; [12]) was 20, the “Bliss Volume” value (Gp2D; [12]) was 0.17 and the HSA volume (Gp2D; [12]) was 0.25. For the same compound, the “Loewe Volume” value (Gp2D; [12]) was 0.05 and the “Synergy Score” value (Gp2D; [12]) was 0.56.
